Data reported in patent US12187720B2, “Compounds for treatment of cancer” (ONCTERNAL THERAPEUTICS, INC., priority 2010, dated 2025).
Read-outs that look alike come from different tables or passages of the source.

How the values were obtained:
PPC-1 = assay: SRB cytotoxicity assay, PPC-1 prostate cancer cells; assay type: cell-based, human
From the text: (§1) Cells were stained with SRB solution.

LNCaP = assay: SRB cytotoxicity assay, LNCaP prostate cancer cells; assay type: cell-based, human
From the text: as §1

PC-3 = assay: SRB cytotoxicity assay, PC-3 prostate cancer cells; assay type: cell-based, human
From the text: as §1

[1] = system: melanoma and prostate cancer cell lines; assay: SRB cytotoxicity, summary or average over melanoma and prostate cancer cell lines; assay type: cell-based; conditions: for fold more activity than the comparator: 2e-cis vs 2e-trans, 12jb vs 12kb; for IC50: average of all seven cell lines
[2] = Metabolic stability in human liver microsomes
[3] = Pharmacokinetic study in Sprague-Dawley rats; conditions: for CL (systemic clearance) / Vss (volume of distribution following intravenous dosing): IV, […] (1h, 2r), 5 mg/kg (5Ha, 5Hc); for F (percent oral bioavailability), rat: rats, PO versus IV
DU 145 = assay: SRB cytotoxicity assay, DU 145 prostate cancer cells; assay type: cell-based; conditions: Homo sapiens
From the text: as §1

MDA-MB-435/LCCMDR1 = assay: SRB cytotoxicity assay, multidrug-resistant MDA-MB-435/LCCMDR1 melanoma cells; assay type: cell-based, human
[4] = Homo sapiens, PPC-1, Table 13A, read-out: inhibitory effects PPC1
[5] = Homo sapiens, LNCaP, Table 13A, read-out: inhibitory effects LNCaP
[6] = Table 13A, read-out: inhibitory effects DU145
[7] = Homo sapiens, PC-3, Table 13A, read-out: inhibitory effects PC3
[8] = Homo sapiens, PPC-1, Table 13B, read-out: inhibitory effects PPC1
[9] = Homo sapiens, LNCaP, Table 13B, read-out: inhibitory effects LNCaP
[10] = Table 13B, read-out: inhibitory effects DU145
[11] = Homo sapiens, PC-3, Table 13B, read-out: inhibitory effects PC3
[12] = Homo sapiens, PPC-1, Table 6A, read-out: IC50 PPC-1
[13] = Homo sapiens, LNCaP, Table 6A, read-out: IC50 LNCaP
[14] = Table 6A, read-out: IC50 DU 145

4-Methoxyphenyl(4-(3,4,5-trimethoxyphenyl)-1H-imidazol-2-yl)methanone and 4-methoxyphenyl(5-(3,4,5-trimethoxyphenyl)-1H-imidazol-2-yl)methanone [70y]
IC50 (PPC-1; Table 13B, read-out: inhibitory effects PPC1): 5680 nM | IC50 (LNCaP; Table 13B, read-out: inhibitory effects LNCaP): 708 nM | IC50 (PC-3; Table 13B, read-out: inhibitory effects PC3): 10400 nM

COc1cc(/C(=N/O)c2csc(-c3ccccc3)n2)cc(OC)c1OC [2e-cis, (Z)-(2-Phenylthiazol-4-yl)(3,4,5-trimethoxyphenyl)methanone oxime]
fold more activity than the comparator [1]: 10 fold | half life in human liver microsome [2]: 35 min

COc1cc(-c2csc(-c3ccccc3)n2)cc(OC)c1OC [2i, 2-Phenyl-4-(3,4,5-trimethoxyphenyl)thiazole]
half-life at 0.5 μM ([2]; human, liver microsomes, pH 7.4): 32 min

COc1cc(C(=O)c2csc(Nc3ccccc3)n2)cc(OC)c1OC.Cl [5Ha, (2-(phenylamino)thiazol-4-yl)(3,4,5-trimethoxyphenyl)methanone hydrochloride salt]
CL (systemic clearance) [3]: 17 ± 3 mL/min/kg | Vss (volume of distribution following intravenous dosing) [3]: 1.4 ± 0.2 L/kg | F (percent oral bioavailability), rat [3]: 11%

COc1cc(C(=O)c2csc(Nc3ccc(F)cc3)n2)cc(OC)c1OC.Cl [5Hc, (2-(p-fluorophenylamino)thiazol-4-yl)(3,4,5-trimethoxyphenyl)methanone hydrochloride salt]
CL (systemic clearance) [3]: 13 ± 2 mL/min/kg | Vss (volume of distribution following intravenous dosing) [3]: 1.4 ± 0.2 L/kg | F (percent oral bioavailability), rat [3]: 21% | IC50 (PPC-1; Homo sapiens, PPC-1, Table 6, read-out: IC50 ± SEM PPC-1): 43 nM | IC50 (LNCaP; Homo sapiens, LNCaP, Table 6, read-out: IC50 ± SEM LNCaP): 53 nM | IC50 (DU 145; Table 6, read-out: IC50 ± SEM DU 145): 70 nM | IC50 (PC-3; Homo sapiens, PC-3, Table 6, read-out: IC50 ± SEM PC-3): 53 nM

O=C(c1ccc(F)cc1)c1cn(S(=O)(=O)c2ccccc2)c(-c2ccc(Cl)cc2)n1 [11fb, (2-(4-chlorophenyl)-1-(phenylsulfonyl)-1H-imidazol-4-yl)(4-fluorophenyl)methanone]
IC50 [1]: 72 nM | IC50 (MDA-MB-435/LCCMDR1; Homo sapiens, Table 14A, multidrug-resistant cell line, n = 3, read-out: IC50 ± SEM MDA-MB-435/LCC6MDR1): 35 ± 3 nM | resistance index (MDA-MB-435/LCCMDR1; IC50 on MDA-MB-435/LCC6MDR1 divided by IC50 on MDA-MB-435): 0.7 | resistance index (MDA-MB-435/LCCMDR1; MDA-MB-435/LCCMDR1 versus MDA-MB-435): 0.7

CN(C)c1ccc(-c2nc(C(=O)c3ccc(F)cc3)cn2S(=O)(=O)c2ccccc2)cc1 [11gb, (2-(4-(dimethylamino)phenyl)-1-(phenylsulfonyl)-1H-imidazol-4-yl)(4-fluorophenyl)methanone]
IC50 [1]: 87 nM

COc1ccc(-c2nc(C(=O)c3cc(OC)c(OC)c(OC)c3)cn2S(=O)(=O)c2ccccc2)cc1OC [11ha, (2-(3,4-dimethoxyphenyl)-1-(phenylsulfonyl)-1H-imidazol-4-yl)(3,4,5-trimethoxyphenyl)methanone]
IC50 [1]: 268 nM

COc1cc(OC)cc(C(=O)c2c[nH]c(-c3ccccc3)n2)c1 [12ad, (3,5-dimethoxyphenyl)(2-phenyl-1H-imidazol-4-yl)methanone]
IC50 [1]: 3100 nM

O=C(c1ccc(F)cc1)c1c[nH]c(-c2ccccc2)n1 [12af, (4-fluorophenyl)(2-phenyl-1H-imidazol-4-yl)methanone]
IC50 [1]: 910 nM

Cc1ccc(-c2nc(C(=O)c3ccc(F)cc3)c[nH]2)cc1 [12db, (4-fluorophenyl)(2-(p-tolyl)-1H-imidazol-4-yl)methanone]
IC50 [1]: 109 nM

COc1cc(C(=O)c2c[nH]c(-c3ccc(OCc4ccccc4)cc3)n2)cc(OC)c1OC [12ja, (2-(4-(benzyloxy)phenyl)-1H-imidazol-4-yl)(3,4,5-trimethoxyphenyl)methanone]
IC50 [1]: 7300 nM

O=C(c1ccc(F)cc1)c1c[nH]c(-c2ccc(OCc3ccccc3)cc2)n1 [12jb, (2-(4-(benzyloxy)phenyl)-1H-imidazol-4-yl)(4-fluorophenyl)methanone]
fold more activity than the comparator [1]: 440 fold | IC50 [1]: 75 nM

O=C(c1cc(O)c(O)c(O)c1)c1c[nH]c(-c2ccc(Cl)cc2)n1 [13fa, (2-(4-chlorophenyl)-1H-imidazol-4-yl)(3,4,5-trihydroxyphenyl)methanone]
IC50 [1]: 3890 nM

COc1cc(C(=O)[C@H]2COC(c3ccccc3)=N2)cc(OC)c1OC [35a, (2R)-(2-Phenyl-4,5-dihydro-oxazol-4-yl)-(3,4,5-trimethoxy-phenyl)-methanone]
antiproliferative activity in words [1]: hundreds of nanomolar range

COc1cc(C(=O)c2coc(-c3ccccc3)n2)cc(OC)c1OC [36a, (2-Phenyl-oxazol-4-yl)-(3,4,5-trimethoxy-phenyl)-methanone]
antiproliferative activity in words [1]: hundreds of nanomolar range

COc1cc(C(=O)c2nc(-c3ccc(F)cc3)c[nH]2)cc(OC)c1OC [70b, (4-(4-fluorophenyl)-1H-imidazol-2-yl)(3,4,5-trimethoxyphenyl)methanone]
IC50 (PPC-1; [4]): 13 nM | IC50 (LNCaP; [5]): 114 nM | IC50 (DU 145; [6]): 353 nM | IC50 (PC-3; [7]): 196 nM

COc1cc(C(=O)c2nc(-c3ccc(N(C)C)cc3)c[nH]2)cc(OC)c1OC [70h, (4-(4-(dimethylamino)phenyl)-1H-imidazol-2-yl)(3,4,5-trimethoxyphenyl)methanone]
IC50 (PPC-1; [4]): 120 nM | IC50 (LNCaP; [5]): 96 nM | IC50 (DU 145; [6]): 263 nM | IC50 (PC-3; [7]): 117 nM

COc1cc(C(=O)c2nc(-c3ccc(O)cc3)c[nH]2)cc(OC)c1OC [70i, (4-(4-hydroxyphenyl)-1H-imidazol-2-yl)(3,4,5-trimethoxyphenyl)methanone]
IC50 (PPC-1; [4]): 122 nM | IC50 (LNCaP; [5]): 219 nM | IC50 (DU 145; [6]): 518 nM | IC50 (PC-3; [7]): 155 nM

COc1cc(C(=O)c2nc(-c3ccccc3)c(C)[nH]2)cc(OC)c1OC [70j, (5-methyl-4-phenyl-1H-imidazol-2-yl)(3,4,5-trimethoxyphenyl)methanone]
IC50 (PPC-1; [4]): 860 nM | IC50 (LNCaP; [5]): 938 nM | IC50 (DU 145; [6]): 2000 nM | IC50 (PC-3; [7]): 1620 nM

CCc1[nH]c(C(=O)c2cc(OC)c(OC)c(OC)c2)nc1-c1ccccc1 [70k, (5-ethyl-4-phenyl-1H-imidazol-2-yl)(3,4,5-trimethoxyphenyl)methanone]
IC50 (PPC-1; [4]): 2080 nM | IC50 (LNCaP; [5]): 2030 nM | IC50 (DU 145; [6]): 5080 nM | IC50 (PC-3; [7]): 3650 nM

CCCc1[nH]c(C(=O)c2cc(OC)c(OC)c(OC)c2)nc1-c1ccccc1 [70l, (4-phenyl-5-propyl-1H-imidazol-2-yl)(3,4,5-trimethoxyphenyl)methanone]
IC50 (PPC-1; [4]): 11400 nM | IC50 (LNCaP; [5]): 3090 nM | IC50 (DU 145; [6]): 16400 nM | IC50 (PC-3; [7]): 12400 nM

O=C(c1ccc(F)cc1)c1nc(-c2ccc(F)cc2)c[nH]1 [70r, (4-fluorophenyl)(4-(4-fluorophenyl)-1H-imidazol-2-yl)methanone]
IC50 (PPC-1; [8]): > 50000 nM | IC50 (LNCaP; [9]): > 50000 nM | IC50 (DU 145; [10]): > 50000 nM | IC50 (PC-3; [11]): > 50000 nM

O=C(c1ccc(Cl)cc1)c1nc(-c2ccc(Cl)cc2)c[nH]1 [70s, (4-chlorophenyl)(4-(4-chlorophenyl)-1H-imidazol-2-yl)methanone]
IC50 (PPC-1; [8]): > 50000 nM | IC50 (LNCaP; [9]): > 50000 nM | IC50 (DU 145; [10]): > 50000 nM | IC50 (PC-3; [11]): > 50000 nM

O=C(c1ccc(C(F)(F)F)cc1)c1nc(-c2ccc(C(F)(F)F)cc2)c[nH]1 [70u, (4-(trifluoromethyl)phenyl)(4-(4-(trifluoromethyl)phenyl)-1H-imidazol-2-yl)methanone]
IC50 (PPC-1; [8]): > 50000 nM | IC50 (LNCaP; [9]): > 50000 nM | IC50 (DU 145; [10]): > 50000 nM | IC50 (PC-3; [11]): > 50000 nM

Cc1ccc(C(=O)c2nc(-c3ccc(C)cc3)c[nH]2)cc1 [70v, p-tolyl(4-p-tolyl-1H-imidazol-2-yl)methanone]
IC50 (PPC-1; [8]): 2400 nM | IC50 (LNCaP; [9]): 3760 nM | IC50 (DU 145; [10]): 6540 nM | IC50 (PC-3; [11]): 5160 nM

COc1ccc(C(=O)c2nc(-c3ccc(OC)cc3)c[nH]2)cc1 [70w, (4-methoxyphenyl)(4-(4-methoxyphenyl)-1H-imidazol-2-yl)methanone]
IC50 (PPC-1; [8]): 38200 nM | IC50 (LNCaP; [9]): 6410 nM | IC50 (DU 145; [10]): 9390 nM | IC50 (PC-3; [11]): 23400 nM

COc1cc(-c2c[nH]c(C(=O)c3ccc(Br)cc3)n2)cc(OC)c1OC [70z, 4-bromophenyl(4-(3,4,5-trimethoxyphenyl)-1H-imidazol-2-yl)methanone]
IC50 (PPC-1; [8]): 107 nM | IC50 (LNCaP; [9]): 131 nM | IC50 (DU 145; [10]): 430 nM | IC50 (PC-3; [11]): 371 nM

Cc1ccc(-c2nc(C(=O)c3ccc(F)cc3)cs2)cc1 [compound 11]
IC50 (PPC-1; [12]): ~10000 nM | IC50 (LNCaP; [13]): > 10000 nM | IC50 (DU 145; [14]): ~10000 nM

COc1ccc(C(=O)n2ccnc2-c2ccc(F)cc2)cc1 [compound 24]
IC50 (PPC-1; [12]): > 10000 nM | IC50 (LNCaP; [13]): > 10000 nM | IC50 (DU 145; [14]): > 10000 nM | IC50 (PC-3; Homo sapiens, PC-3, Table 6A, read-out: IC50 PC-3): > 10000 nM
